The record followed here is patent publication US20230265116A1, “DEGRADATION OF (EGFR) BY CONJUGATION OF EGFR INHIBITORS WITH E3 LIGASE LIGAND AND METHODS OF USE” (BEIGENE, LTD., priority 2020, published 2023).

Read-outs that look alike come from different tables or passages of the source.

Assay type in all cases: cell-based
Assay [1] deals with EGFR Del19/T790M/C797S (BaF3-DTC cells). Put plainly: EGFR degradation HTRF assay, BaF3-DTC cells. The settings on record: 16h treatment; for DTC Dmax (%): maximum percentage of degradation; for DC50: read-out: DTC DC50. The protocol: BaF3 WT(wild type), BaF3-LTC(L858R/T790M/C797S) and BaF3-DTC(Del19/T790M/C797S) cells are treated with compounds diluted in 0.2% DMSO cell culture medium and incubate for 16h, 37° C., 5% CO2, H1975-#36, H1975-#28, H1975-#23 and HCC827 cells are treated with compounds diluted in 0.2% DMSO cell culture medium on day 2, incubate for 16h, 37° C., 5% CO2.the final concentriation of compounds in all assay is start with 10 uM, 5-fold dilution, total 8 doses were included.
After 16h treatment, add HTRF lysis buffer to each well; seal the plate and incubate 1 hour at room temperature on a plate shaker; Once the cells are lysed, 16 μL of cell lysate are transferred to a PE 384-well HTRF detection plate; 4 μL of pre-mixed HTRF antibodies are added to each well; Cover the plate with a plate sealer, spin 1000 rpm for 1 min, Incubate overnight at room temperature; Read on BMG PheraStar with HTRF protocol (337 nm-665 nm-620 nm).
The inhibition (degradation) percentage of the compound was calculated by the following equation: Inhibition percentage of Compound=100-100×(Signal-low control)/(High control-low control), wherein signal=each test compound group
High control=Cell group with added DMSO and without compound, indicating microplate readings without EGFR degradation;
Dmax is the maximum percentage of inhibition (degradation).
The IC50 (DC50) value of a compound can be obtained by fitting the following equation
Y=Bottom+(TOP−Bottom)/(1+((IC50/X)^hillslope))
Wherein, X and Y are known values, and IC50, Hillslope, Top and Bottom are the parameters obtained by fitting with software. Y is the inhibition percentage (calculated from the equation), X is the concentration of the compound; IC50 is the concentration of the compound when the 50% inhibition is reached. The smaller the IC50 value is, the stronger the inhibitory ability of the compound is. Vice versa, the higher the IC50 value is, the weaker the inhibitory ability of the compound is; Hillslope represents the slope of the fitted curve, generally around 1*; Bottom represents the minimum value of the curve obtained by data fitting, which is generally 0%±20%; Top represents the maximum value of the curve obtained by data fitting, which is generally 100%±20%. The experimental data were fitted by calculating and analyzing with Dotmatics data analysis software.
On the technique in general: In TR-FRET formats the signal depends on donor and acceptor labels being close together.

In assay [2] the target is T1, EGFR L858R/T790M/C797S (BaF3-LTC cells) (Homo sapiens, UniProt P00533, C797S/L858R/T790M).
T1 construct: expressed in transfected cells; host or cells: BaF3
T1 sequence (P00533 25-1210 T790M/C797S/L858R): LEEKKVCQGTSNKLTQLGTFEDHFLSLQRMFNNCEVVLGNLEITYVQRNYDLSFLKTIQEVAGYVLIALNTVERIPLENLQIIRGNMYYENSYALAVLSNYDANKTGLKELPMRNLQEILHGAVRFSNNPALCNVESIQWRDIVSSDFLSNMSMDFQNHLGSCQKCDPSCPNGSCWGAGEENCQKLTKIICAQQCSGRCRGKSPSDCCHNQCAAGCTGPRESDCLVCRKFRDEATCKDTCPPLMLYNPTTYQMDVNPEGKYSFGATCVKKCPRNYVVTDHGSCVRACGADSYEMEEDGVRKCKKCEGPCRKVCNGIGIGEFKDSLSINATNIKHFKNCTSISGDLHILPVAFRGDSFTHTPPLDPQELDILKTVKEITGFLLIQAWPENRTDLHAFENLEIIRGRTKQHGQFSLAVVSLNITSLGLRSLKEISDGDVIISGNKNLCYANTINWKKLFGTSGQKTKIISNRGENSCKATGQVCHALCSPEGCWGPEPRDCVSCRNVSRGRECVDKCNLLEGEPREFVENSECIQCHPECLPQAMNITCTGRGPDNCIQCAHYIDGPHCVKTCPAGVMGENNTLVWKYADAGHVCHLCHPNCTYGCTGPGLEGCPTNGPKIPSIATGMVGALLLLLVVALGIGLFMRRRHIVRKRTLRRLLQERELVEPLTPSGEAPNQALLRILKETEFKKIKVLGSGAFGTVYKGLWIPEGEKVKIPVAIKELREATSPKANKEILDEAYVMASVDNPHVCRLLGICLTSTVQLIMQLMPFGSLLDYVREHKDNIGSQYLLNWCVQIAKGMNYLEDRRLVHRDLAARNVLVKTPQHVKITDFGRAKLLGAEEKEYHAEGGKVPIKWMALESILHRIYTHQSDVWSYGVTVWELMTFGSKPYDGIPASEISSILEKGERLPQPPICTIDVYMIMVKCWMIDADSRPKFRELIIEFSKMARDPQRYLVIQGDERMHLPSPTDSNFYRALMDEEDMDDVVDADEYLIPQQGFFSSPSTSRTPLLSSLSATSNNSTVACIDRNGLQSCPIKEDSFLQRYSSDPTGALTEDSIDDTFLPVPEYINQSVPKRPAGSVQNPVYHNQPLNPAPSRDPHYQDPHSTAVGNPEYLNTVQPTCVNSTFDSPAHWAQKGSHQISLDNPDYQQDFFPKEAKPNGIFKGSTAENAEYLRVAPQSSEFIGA
Put plainly: EGFR degradation HTRF assay, BaF3-LTC cells. Put shortly:
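Cells treated 16 h at 37 °C, 5% CO2 in medium with 0.2% DMSO; top final concentration 10 uM, 5-fold dilution, 8 doses. Lysates read by HTRF (665/620 nm); degradation % versus DMSO high control, DC50 from four-parameter fit, Dmax as maximal degradation.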

The subject of assay [3] is EGFR Del19/T790M/C797S (H1975-clone #28). Put plainly: EGFR degradation HTRF assay, H1975-clone #28 DTC cells. Put shortly:
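The test uses H1975 clonal lines carrying lentiviral mutant EGFR with endogenous copies removed, treated 16h at 37° C., 5% CO2. EGFR left in the lysate is quantified by HTRF, and DC50 is derived from an 8-dose curve starting at 10 uM final.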

[4] abbreviates: BaF3-LTC, 16h treatment, maximum percentage of degradation, read-out: LTC Dmax (%).
[5] abbreviates: BaF3-LTC, 16h treatment, read-out: LTC DC50.
The mark [6] stands for this setting: BaF3-LTC cells, EGFR degradation, IC50 (DC50) from curve fit, read-out: DC50(nM) BaF3-LTC.
[7] abbreviates: H1975 # 28 DTC cells; EGFR degradation, IC50 (DC50) from curve fit; read-out: DC50(nM) H1975 # 28 DTC.
Where [8] appears, read: H1975 # 28 DTC cells; maximum percentage of inhibition (degradation).

In general, DC50 refers to the midpoint of the concentration-degradation curve. The term Dmax denotes the largest share of the target that was removed. Regarding `CCc1cc(Nc2ncc(Br)c(Nc3ccc4nc(C)ccc4c3P(C)(C)=O)n2)c(OC)cc1N1CCC(N2CCN(CCc3ccc4c(c3)C3(CC3)C(=O)N4C3CCC(=O)NC3=O)CC2)CC1` (centres unmarked) [Example 710, 3-(5′-(2-(4-(1-(4-((5-bromo-4-((5-(dimethylphosphoryl)-2-methylquinolin-6-yl)amino)pyrimidin-2-yl)amino)-2-ethyl-5-methoxyphenyl)piperidin-4-yl)piperazin-1-yl)ethyl)-2′-oxospiro[cyclopropane-1,3′-indolin]-1′-yl)piperidine-2,6-dione], the “DTC Dmax (%)” value in assay [1] was determined as 87.65%. The DC50 in assay [1] is 2.69 nM; in assay [2] (setting [5]), 13.6 nM. The Dmax in assay [2] (setting [4]) amounted to 90.9%.
For the compound `CCc1cc(Nc2ncc(Br)c(Nc3ccc4nccnc4c3P(C)(C)=O)n2)c(OC)cc1N1CCC(N2CCN(C(=O)C3CN(c4ccc(C5CCC(=O)NC5=O)cc4)C3)CC2)CC1` (centres unmarked) [Example 199, 3-(4-(3-(4-(1-(4-((5-bromo-4-((5-(dimethylphosphoryl)quinoxalin-6-yl)amino)pyrimidin-2-yl)amino)-2-ethyl-5-methoxyphenyl)piperidin-4-yl)piperazine-1-carbonyl)azetidin-1-yl)phenyl)piperidine-2,6-dione], in assay [1], the “DTC Dmax (%)” value was 84.49% and the DC50 was determined as 9.03 nM. Further, in assay [2] (setting [4]), the greatest degradation seen (Dmax) was found to be 86.6%. In assay [2] (setting [5]), the DC50 is 22.1 nM.
On to `CCc1cc(Nc2ncc(Br)c(Nc3ccc4nccnc4c3P(C)(C)=O)n2)c(OC)cc1N1CCC(N2CCN(CCCCc3cc(F)c(C4CCC(=O)NC4=O)c(F)c3)CC2)CC1` (centres unmarked) [Example 282, 3-(4-(4-(4-(1-(4-((5-bromo-4-((5-(dimethylphosphoryl)quinoxalin-6-yl)amino)pyrimidin-2-yl)amino)-2-ethyl-5-methoxyphenyl)piperidin-4-yl)piperazin-1-yl)butyl)-2,6-difluorophenyl)piperidine-2,6-dione], for which, in assay [1], the “DTC Dmax (%)” value was determined as 93.51% and the DC50 is 15.2 nM. Also, in assay [2] (setting [4]), the Dmax came to 85%. Moreover, in assay [2] (setting [5]), the DC50 stood at 21.5 nM.
Turning to `CCc1cc(Nc2ncc(Br)c(Nc3ccc4nccnc4c3P(C)(C)=O)n2)c(OC)cc1N1CCC(N2CCN(CCc3ccc(C4CCC(=O)NC4=O)c(F)c3)C[C@H]2COC)CC1` (stereo partly drawn) [Example 288, 3-(4-(2-((S)-4-(1-(4-((5-bromo-4-((5-(dimethylphosphoryl)quinoxalin-6-yl)amino)pyrimidin-2-yl)amino)-2-ethyl-5-methoxyphenyl)piperidin-4-yl)-3-(methoxymethyl)piperazin-1-yl)ethyl)-2-fluorophenyl)piperidine-2,6-dione], in assay [1], the “DTC Dmax (%)” value is 69.76% and the DC50 came out at 21.3 nM. Also, in assay [2] (setting [4]), the Dmax was found to be 84.1%. The 50% degradation concentration (DC50) in assay [2] (setting [5]) was 333 nM.
Turning to `COc1cc(N2CCC(N3CCN(CCC4CCN(c5cc(F)c(C6CCC(=O)NC6=O)c(F)c5)CC4)CC3)CC2)c(C)cc1Nc1ncc(Br)c(Nc2ccc3nccnc3c2P(C)(C)=O)n1` (centres unmarked) [Example 215, 3-(4-(4-(2-(4-(1-(4-((5-bromo-4-((5-(dimethylphosphoryl)quinoxalin-6-yl)amino)pyrimidin-2-yl)amino)-5-methoxy-2-methylphenyl)piperidin-4-yl)piperazin-1-yl)ethyl)piperidin-1-yl)-2,6-difluorophenyl)piperidine-2,6-dione], the “DTC Dmax (%)” value in assay [1] is given as 96.67%. The results for the DC50 in assay [1] and in assay [2] (setting [5]) were 4.91 nM and 20.5 nM, respectively. In addition, the Dmax in assay [2] (setting [4]) is 91.4%.
For the compound `CCc1cc(Nc2ncc(Br)c(Nc3ccc4nccnc4c3P(C)(C)=O)n2)c(OC)cc1N1CCC(N2CCN(CCc3ccc(C4CCC(=O)NC4=O)c(F)c3)[C@H](CO)C2)CC1` (stereo partly drawn) [Example 291, 3-(4-(2-((S)-4-(1-(4-((5-bromo-4-((5-(dimethylphosphoryl)quinoxalin-6-yl)amino)pyrimidin-2-yl)amino)-2-ethyl-5-methoxyphenyl)piperidin-4-yl)-2-(hydroxymethyl)piperazin-1-yl)ethyl)-2-fluorophenyl)piperidine-2,6-dione], in assay [1], the “DTC Dmax (%)” value is recorded as 83.17% and the DC50 was 7.9 nM. Moreover, the Dmax in assay [2] (setting [4]) is 87.2%. In addition, the 50% degradation concentration (DC50) in assay [2] (setting [5]) is 23.6 nM.
For the compound `[2H]C1([2H])CC([2H])(c2c(F)cc(CCN3CCN(C4CCN(c5cc(OCC)c(Nc6ncc(Br)c(Nc7ccc8nc(C)ccc8c7P(C)(C)=O)n6)cc5CC)CC4)CC3)cc2F)C(=O)NC1=O` (centres unmarked) [Example 570, 3-(4-(2-(4-(1-(4-((5-bromo-4-((5-(dimethylphosphoryl)-2-methylquinolin-6-yl)amino)pyrimidin-2-yl)amino)-5-ethoxy-2-ethylphenyl)piperidin-4-yl)piperazin-1-yl)ethyl)-2,6-difluorophenyl)piperidine-2,6-dione-3,5,5-d3], the 50% degradation concentration (DC50) in assay [2] (setting [6]) worked out at 20.5 nM; in assay [3] (setting [7]), 3.03 nM. Also, the “Dmax (%) H1975 # 28 DTC” value in assay [3] (setting [8]) is listed as 76.54%.
For the compound `CCOc1cc(N2CCC(N3CCN(C(=O)CCC4CN(c5cccc6c5oc(=O)n6C5CCC(=O)NC5=O)C4)CC3)CC2)c(CC)cc1Nc1ncc(Br)c(Nc2ccc3nc(CC)ccc3c2P(C)(C)=O)n1` (centres unmarked) [Example 625, 3-(7-(3-(3-(4-(1-(4-((5-bromo-4-((5-(dimethylphosphoryl)-2-ethylquinolin-6-yl)amino)pyrimidin-2-yl)amino)-5-ethoxy-2-ethylphenyl)piperidin-4-yl)piperazin-1-yl)-3-oxopropyl)azetidin-1-yl)-2-oxobenzo[d]oxazol-3(2H)-yl)piperidine-2,6-dione], the DC50 in assay [2] (read-out: DC50(nM) BaF3-LTC, BaF3-LTC cells, EGFR degradation, IC50 (DC50) from curve fit) is 11 nM; in assay [3] (read-out: DC50(nM) H1975 # 28 DTC; H1975 # 28 DTC cells; EGFR degradation, IC50 (DC50) from curve fit), 1.86 nM. Besides, the Dmax in assay [2] (read-out: Dmax (%) BaF3-LTC, BaF3-LTC cells, maximum percentage of inhibition (degradation)) was 88.8%. Besides, the “Dmax (%) H1975 # 28 DTC” value in assay [3] (setting [8]) is listed as 80.1%.
`CCOc1cc(N2CCC(N3CCN(CCc4ccc(F)c5c4oc(=O)n5C4CCC(=O)NC4=O)CC3)CC2)c(CC)cc1Nc1ncc(Br)c(Nc2cc(F)c3nc(CC)ccc3c2P(C)(C)=O)n1` (centres unmarked) [Example 592, 3-(7-(2-(4-(1-(4-((5-bromo-4-((5-(dimethylphosphoryl)-2-ethyl-8-fluoroquinolin-6-yl)amino)pyrimidin-2-yl)amino)-5-ethoxy-2-ethylphenyl)piperidin-4-yl)piperazin-1-yl)ethyl)-4-fluoro-2-oxobenzo[d]oxazol-3(2H)-yl)piperidine-2,6-dione]: the DC50 was found to be 12.5 nM in assay [2] (setting [6]) and 1.18 nM in assay [3] (setting [7]). The maximal degradation (Dmax) in assay [2] (BaF3-LTC cells, maximum percentage of inhibition (degradation), read-out: Dmax (%) BaF3-LTC) was 83.7%. Moreover, the “Dmax (%) H1975 # 28 DTC” value in assay [3] (setting [8]) came out at 82.2%.
Consider `CCc1cc(Nc2ncc(Br)c(Nc3ccc4nc(C)ncc4c3P(C)(C)=O)n2)c(OC)cc1N1CCC(N2CCN(C(=O)[C@H]3CN(c4cc(F)c([C@H]5CCC(=O)NC5=O)c(F)c4)CC3(C)C)CC2)CC1` [Example 740, (R)-3-(4-((R)-4-(4-(1-(4-((5-bromo-4-((5-(dimethylphosphoryl)-2-methylquinazolin-6-yl)amino)pyrimidin-2-yl)amino)-2-ethyl-5-methoxyphenyl)piperidin-4-yl)piperazine-1-carbonyl)-3,3-dimethylpyrrolidin-1-yl)-2,6-difluorophenyl)piperidine-2,6-dione], for which the DC50 in assay [2] (setting [6]) turned out to be 4.11 nM; in assay [3] (setting [7]), 0.717 nM. Besides, in assay [3] (setting [8]), the “Dmax (%) H1975 # 28 DTC” value is on record as 87.27%.
